From PubChem BioAssay AID179 (DTP/NCI, 2004)
Active and inactive are the calls of the source.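 How the source made its calls: active means compounds giving half or more protection of infected cells from virus-caused growth loss, again on retest; inactive means the rest.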

System: CEM cells HIV-1 protection, formazan growth assay
Assay: NCI AIDS Antiviral Assay
Details: for IC50: measured here: growth of uninfected CEM cells
Method in brief: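 Protection of CEM cells against HIV-1 measured as cell growth via soluble formazan read-out, with five concentrations tested on both infected and uninfected cells; failure to protect may reflect toxicity.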

For CCOC(=O)C1=CCOc2cc(N(C)C)ccc21, the EC50 was > 200 µM and the IC50 was 105 µM.

With COc1ccc(N2C(=O)C3c4[nH]c5ccccc5c4C4CCCCCCCCCCC4C3C2=O)cc1 (centres undefined) the EC50 was > 5.62 µM and the IC50 was > 5.62 µM.

With C[n+]1cn(-c2ccc([N+](=O)[O-])cn2)c2ccccc21 the EC50 was > 200 µM and the IC50 was 170 µM.

CC(C)OC(=S)SSC(=S)NCCNC(=S)SSC(=S)OC(C)C was tested, and the EC50 was > 200 µM and the IC50 was 9.77 µM.

In the case of COc1ccc(/C=C2\NC(=S)N(/C=C3\C(=O)Oc4ccccc4C3=O)C2=O)cc1OC, the EC50 is reported as > 200 µM and the IC50 is reported as > 200 µM.

Cc1c(C)c2ccc3occc(=O)c3c2oc1=O was tested, and the EC50 was > 195 µM and the IC50 was 95.5 µM.

For Cc1ccc(S(=O)(=O)N/N=C2\CC3C4CCC3C2C4)cc1 (centres undefined), the EC50 was > 200 µM and the IC50 was > 200 µM.

For C[C@]12CCC[C@](C)(C(=O)O)[C@@H]1CC[C@@]13C[C@@H](CC[C@@H]12)[C@@H](C(=O)O)C3, the EC50 was > 200 µM and the IC50 was > 200 µM.

Cc1cc(S(=O)(=O)Nc2cc(N)[nH]n2)c(SCc2nc(N)nc(N(C)C)n2)cc1Cl was tested, and the EC50 was > 200 µM and the IC50 was > 200 µM.

In the case of NC(CCCCNC(=O)C(Cc1ccccc1)NC(=O)OCc1ccccc1)C(=O)NC(CCCCNC(=O)C(Cc1ccccc1)NC(=O)OCc1ccccc1)C(=O)NC(CCCCNC(=O)C(Cc1ccccc1)NC(=O)OCc1ccccc1)C(=O)NC(CCCCNC(=O)C(Cc1ccccc1)NC(=O)OCc1ccccc1)C(=O)NC(CCCCNC(=O)C(Cc1ccccc1)NC(=O)OCc1ccccc1)C(=O)NC(CCCCNC(=O)C(Cc1ccccc1)NC(=O)OCc1ccccc1)C(=O)O (centres undefined), the EC50 is reported as > 50.1 µM and the IC50 is reported as > 50.1 µM.

For O=C1c2ccccc2C(=O)[C@@]23O[C@@]12C1(Oc2cccc4cccc(c24)O1)[C@@H]1O[C@@H]1[C@@H]3O, the EC50 was > 20 µM and the IC50 was 1.15 µM.

In the case of CC(C)N1C(C)[C@@H](c2ccccc2)O[P@@]1(=O)CC1=CCCCC1 (some centres undefined), the outcome is reported as “inactive”.

CCOP(=O)(OCC)/C(C#N)=C/C=C/c1ccco1 was tested, and the EC50 was > 646 µM and the IC50 was 148 µM.

In the case of CO[C@H](C(=O)O[C@H]1C(=O)N2CCC3CCC1C32C)c1ccccc1 (some centres undefined), the EC50 is reported as > 759 µM and the IC50 is reported as 501 µM.

In the case of COc1ccc(OCC(=O)O)c2c1CCCC2=O, the outcome is reported as “inactive”.

With CC(=O)O[C@H]1CC[C@@]2(C)C(=CC[C@@H]3C2CC[C@]2(C)Nc4c(cnn4-c4ccccc4)CC32)C1 (some centres undefined) the outcome was “inactive”.

With COc1cccc(C=O)c1[O-].COc1cccc(C=O)c1[O-].[Ni+2] the EC50 was > 50.1 µM and the IC50 was 35.5 µM.

With CC1=NNC(=NCCN(C)C)C/C1=C/c1ccccc1Cl the outcome was “inactive”.

In the case of O=C(O)CCCCCCCCCCCO, the EC50 is reported as > 200 µM and the IC50 is reported as > 200 µM.

For [Cl][Pt+2][Cl].[NH-]C1CCCC1[NH-] (centres undefined), the EC50 was > 200 µM and the IC50 was 49 µM.

S=c1nc(C(c2ccccc2)c2ccccc2)[nH][nH]1 was tested, and the EC50 was > 135 µM and the IC50 was > 135 µM.

With CC(=O)/C(=C(/Br)I)c1ccccc1 the outcome was “inactive”.

With Oc1ccccc1C1C=C(c2ccccc2)NC(N2CCCCC2)=C1c1nc2ccccc2[nH]1 (centres undefined) the outcome was “inactive”.

With CC1=CN2C(c3ccc(Cl)cc3)=NON(c3ccc(C)cn3)C2C=C1 (centres undefined) the EC50 was > 10.2 µM and the IC50 was > 10.2 µM.

With COc1ccccc1-n1nnc2c(N)nc(N)nc21 the EC50 was > 200 µM and the IC50 was > 200 µM.

For CCCCC12C3CC4C5C(C)/C(=C6\OC(=O)C(C)=C6OC)OC5(O3)C1CCN42 (centres undefined), the EC50 was > 50.1 µM and the IC50 was > 50.1 µM.

In the case of O=C(CNC(=O)c1ccc(Cl)cc1)NO, the EC50 is reported as > 200 µM and the IC50 is reported as > 200 µM.

In the case of CCOC(=S)SCCSC, the EC50 is reported as > 200 µM and the IC50 is reported as > 200 µM.

O=C(O)C1Cc2ccccc2OC1=O (centres undefined) was tested, and the EC50 was > 200 µM and the IC50 was > 200 µM.

For O=C1CC2c3c(OCc4ccccc4)cccc3OC2O1 (centres undefined), the EC50 was > 47.9 µM and the IC50 was > 47.9 µM.

With COc1c(C(=O)O)cccc1-c1cccc(C(=O)NCCN(CCNC(=O)c2cccc(-c3cccc(C(=O)O)c3OC)c2OC)CCNC(=O)c2cccc(-c3cccc(C(=O)O)c3OC)c2OC)c1OC the EC50 was > 200 µM and the IC50 was > 200 µM.

With COC1Nc2nc3ccccc3nc2NC1OC (centres undefined) the EC50 was > 363 µM and the IC50 was 66.1 µM.

COc1ccc([C@]23CCC4(OCC(C)(C)CO4)[C@H]4CON(O[C@H](O[C@@H]5CCCCC5C(C)(C)c5ccccc5)C2)[C@@H]43)cc1OC (some centres undefined) was tested, and the EC50 was > 50.1 µM and the IC50 was > 50.1 µM.

With O=[N+]([O-])c1ccccc1S(=O)c1ccccc1[N+](=O)[O-] the EC50 was > 204 µM and the IC50 was 3.47 µM.

For CCC1=C(c2ccc(OC)cc2)CCC2(CCNC2)C1C (centres undefined), the EC50 was > 513 µM and the IC50 was 10.5 µM.

For NC(=O)CNC(=O)c1ccccc1SC(=O)NCCCCl, the EC50 was 3.72 µM and the IC50 was 64.6 µM.

CN(C)CCCSc1c2ccccc2nc2cc(NCC(=O)Nc3ccccc3-c3ccccc3NC(=O)CNc3ccc4c(SCCCN(C)C)c5ccccc5nc4c3)ccc12 was tested, and the EC50 was > 123 µM and the IC50 was 58.9 µM.

In the case of CCCCCCCCCCCCCCCC(=O)Nc1ccn(C2CCC(COP(=O)(O)OCC3CCC(n4cnc5c(=O)[nH]cnc54)O3)O2)c(=O)n1 (centres undefined), the EC50 is reported as 0.759 µM and the IC50 is reported as > 100 µM.

With Cc1ccc(/C=c2\cc3oc(=O)c4cccc(c4-3)c2=O)cc1 the EC50 was > 200 µM and the IC50 was 3.8 µM.

For O=C1c2n[nH]nc2C(=O)c2n[nH]nc21, the EC50 was > 200 µM and the IC50 was > 200 µM.

N=C(OC1CCCCC1)N1CCOCC1 was tested, and the EC50 was > 200 µM and the IC50 was > 200 µM.

For COc1cc2c[n+](C)c3c4ccccc4ccc3c2cc1OC (tested in a mixture with another compound), the EC50 was > 170 µM and the IC50 was 6.03 µM.

O=S1(=O)C(c2ccc(F)cc2)=C(O)c2cc3ccccc3nc21 was tested, and the outcome was “inactive”.

In the case of COc1cc(C2c3cc4c(cc3OC3(OC)COC(=O)C23)OCO4)cc(OC)c1OC(C)=O (centres undefined), the EC50 is reported as > 100 µM and the IC50 is reported as 0.562 µM.

Nc1nc(Cl)c(N)c(NCC2(CO)CC(Cc3ccccc3)C2)n1 (centres undefined) was tested, and the EC50 was > 200 µM and the IC50 was 19.5 µM.

For Cc1nnc(N)nc1/C=C/c1c(O)ccc2ccccc12, the EC50 was > 200 µM and the IC50 was 26.3 µM.

In the case of COC(=O)/C=C/C=C/c1ccc2c(c1OC)C(=O)c1ccccc1C2=O, the outcome is reported as “inactive”.

CN1CCC2CCCCN2CC1=O (centres undefined) was tested, and the EC50 was > 1150 µM and the IC50 was > 1150 µM.

In the case of O=[N+]([O-])c1cc2ccc(N(CCO)CCO)nc2nc1N(CCO)CCO, the EC50 is reported as > 200 µM and the IC50 is reported as > 200 µM.

In the case of CCNc1ncc2nc(CC(=O)OC)c(=O)n(CC)c2n1, the EC50 is reported as > 200 µM and the IC50 is reported as > 200 µM.

O=C1C(=Cc2ccc([N+](=O)[O-])cc2)C(=O)c2ccccc21 was tested, and the EC50 was > 49 µM and the IC50 was 11.7 µM.

For CC1(C)CC(/C=C2/OC(=O)c3ccccc32)=C(C#N)C(=O)O1, the EC50 was > 33.9 µM and the IC50 was > 33.9 µM.

For CCCCCCCCC1C(C)c2c([nH]c3ccccc23)C2C(=O)N(c3ccccc3)C(=O)C21 (centres undefined), the outcome was “inactive”.

NC(CCC(=O)O)(C(=O)O)c1ccccc1 (centres undefined) was tested, and the EC50 was > 200 µM and the IC50 was > 200 µM.

For COC(=O)CNC(=O)CNC(=O)CSc1nnc(COc2ccc(Cl)cc2)n1-c1ccccc1, the EC50 was > 200 µM and the IC50 was 30.9 µM.

With C=CCc1c(C(O)CNC(C)C)ccc(OC)c1OCc1ccccc1 (centres undefined) the EC50 was > 200 µM and the IC50 was 30.2 µM.

COc1ccccc1NC(=O)C(/C=N/C(=S)NCCNc1ccc(OC)c(OC)c1)=C(\C)O was tested, and the EC50 was > 200 µM and the IC50 was 51.3 µM.

In the case of Cc1ccc(N2CC(=O)N3CCCC(C)N3C(=O)C2)cc1 (centres undefined), the EC50 is reported as > 200 µM and the IC50 is reported as 174 µM.

For CC12O[C@H](c3ccccc3)[C@H](c3ccccc3)N1C(=O)C1(C(=O)OCc3ccccc3)CC12 (some centres undefined), the EC50 was > 22.9 µM and the IC50 was > 22.9 µM.

C=C1C(=O)C23C(O)C1CC[C@H]2C12CCCC(C)(C)[C@H]1[C@H](O)[C@]3(O)OC2 (some centres undefined) was tested, and the EC50 was > 724 µM and the IC50 was 0.339 µM.

COC1=CC(=O)C(CO)=CC1=O was tested, and the EC50 was > 200 µM and the IC50 was 7.59 µM.

[N-]=[N+]=N/C1=C/CCCCC(=O)C1 was tested, and the outcome was “inactive”.

CC(C)N1CC2CC(CN(C(=O)c3ccc(Cl)cc3)C2)C1 was tested, and the EC50 was > 427 µM and the IC50 was > 427 µM.

In the case of CCOC(NC(=O)CC)(C(F)(F)F)C(F)(F)F, the outcome is reported as “inactive”.

For Cc1cc(NC[C@H](O)[C@H](O)[C@H](O)CO)c(Sc2cc(=O)[nH]c(=O)[nH]2)cc1C, the outcome was “inactive”.

With N#C/C(=C\n1c(=S)[nH]c2ccc([N+](=O)[O-])cc21)c1nc2ccccc2s1 the EC50 was > 200 µM and the IC50 was 102 µM.

With COC(=O)C1(C(=O)OC)N=C(C)OC1C(C)C (centres undefined) the EC50 was > 200 µM and the IC50 was > 200 µM.

Compound CC(C)CC(NC(=O)c1ccccc1SC(=O)CCCC[n+]1ccccc1)C(N)=O (centres undefined) has an EC50 of 1.74 µM and an IC50 of 4.07 µM.

Cc1ccc(-c2nc(-c3cnccn3)n(C3OC(CO)C(O)C(O)C3O)n2)cc1 (centres undefined) was tested, and the EC50 was > 200 µM and the IC50 was > 200 µM.

For CCOC(=O)Nc1ccc2nc(N3CCCCCC3)sc2c1, the EC50 was > 58.9 µM and the IC50 was 1.02 µM.

With Cn1nccc2c(=O)n(C)c(=O)nc1-2 the EC50 was > 200 µM and the IC50 was > 200 µM.

CCOP(=O)(OCC)C(=O)C1CC1 was tested, and the EC50 was > 1200 µM and the IC50 was 832 µM.

In the case of COc1ccc([C@]23CCN(S(=O)(=O)c4ccc(C)cc4)[C@H]2[C@H](CO)C2(CC3)OCC(C)(C)CO2)cc1OC, the EC50 is reported as > 100 µM and the IC50 is reported as 87.1 µM.

For Cc1ccc(SC/C(=C\CS(=O)(=O)c2ccc(C)cc2)S(=O)(=O)c2ccc(Br)cc2)cc1, the outcome was “inactive”.

For CC(CN1CC(=O)NC(=O)C1)N1CC(=O)NC(=O)C1 (centres undefined), the EC50 was > 468 µM and the IC50 was 40.7 µM.

O=S(=O)(O)CC(S(=O)(=O)O)S(=O)(=O)O was tested, and the EC50 was > 200 µM and the IC50 was > 200 µM.

O=C1C(=O)N(c2cc(Cl)ccc2Cl)C(=O)C(=O)C1c1nc2ccccc2o1 was tested, and the EC50 was > 24.5 µM and the IC50 was > 24.5 µM.

With c1ccc(/N=N/c2ccccn2)nc1 the EC50 was > 200 µM and the IC50 was > 200 µM.

CC(C)(C)C1=NO[C@H]2[C@@H](NC(=O)c3ccccc3)CC[C@@H]12 was tested, and the EC50 was > 871 µM and the IC50 was 302 µM.

In the case of CCn1c(=O)c2c3ccc(O)cc3[nH]c2c2ccc(O)cc21, the EC50 is reported as > 200 µM and the IC50 is reported as 38.9 µM.

For Cc1cc([N+](=O)[O-])ccc1NC(=O)C(=O)C(C(=O)c1ccccc1-c1ccccc1)C1OC(=O)c2ccccc21 (centres undefined), the EC50 was > 178 µM and the IC50 was 28.2 µM.

With Cc1cc(=O)oc2c(CNC(C)C(=O)O)c(O)ccc12 (centres undefined) the EC50 was > 200 µM and the IC50 was 186 µM.

For CC(=O)N1N=C(c2c(O)ccc3ccccc23)CC1C(=O)c1ccco1 (centres undefined), the EC50 was > 200 µM and the IC50 was 35.5 µM.

For O=[N+]([O-])Cc1cnc2nncn2n1, the outcome was “inactive”.
